Source: the kinase profiling compilation of Christmann-Franck et al. (2016)

Columns and labels:
[1] = target: CHKA (human) (UniProt P35790); experiment: ADP detection assay-Luminescence; conditions: ATP 1 µM
[2] = target: DGKB (human) (UniProt Q9Y6T7); experiment: ADP detection assay-Luminescence
[3] = target: PIK3CA PIK3R1 (human) (UniProt P27986+P42336); experiment: ADP detection assay-Luminescence; conditions: ATP 1000 µM
[4] = target: PIK3CB PIK3R1 (human) (UniProt P27986+P42338); experiment: ADP detection assay-Luminescence; conditions: ATP 1000 µM
[5] = target: PIK3CG (human) (UniProt P48736); experiment: ADP detection assay-Luminescence
[6] = target: PIP4K2A (human) (UniProt P48426); experiment: ADP detection assay-Luminescence
[7] = target: SPHK1 (human) (UniProt Q9NYA1); experiment: ADP detection assay-Luminescence; conditions: ATP 10 µM
[8] = target: SPHK2 (human) (UniProt Q9NRA0); experiment: ADP detection assay-Luminescence; conditions: ATP 1 µM
[9] = target: AURKB (human) (UniProt Q96GD4); experiment: radiometric filter-binding kinase assay; conditions: ATP 20 µM
[10] = target: CAMKK2 (human) (UniProt Q96RR4); experiment: radiometric filter-binding kinase assay; conditions: ATP 20 µM
[11] = target: CHEK1 (human) (UniProt O14757); experiment: radiometric filter-binding kinase assay; conditions: ATP 20 µM
[12] = target: DYRK1A (human) (UniProt Q13627); experiment: radiometric filter-binding kinase assay; conditions: ATP 50 µM
[13] = target: DYRK2 (human) (UniProt Q92630); experiment: radiometric filter-binding kinase assay; conditions: ATP 50 µM
[14] = target: FLT1 (human) (UniProt P17948); experiment: radiometric filter-binding kinase assay
[15] = test system: LCK (mouse); experiment: radiometric filter-binding kinase assay; conditions: ATP 50 µM, accession and sequence are those of the human protein
[16] = target: MAPK1 (human) (UniProt P28482); experiment: radiometric filter-binding kinase assay
[17] = target: MAPK13 (human) (UniProt O15264); experiment: radiometric filter-binding kinase assay; conditions: ATP 5 µM
[18] = target: MAPKAPK2 (human) (UniProt P49137); experiment: radiometric filter-binding kinase assay; conditions: ATP 20 µM
[19] = target: MKNK2 (human) (UniProt Q9HBH9); experiment: radiometric filter-binding kinase assay; conditions: ATP 50 µM
[20] = target: MST4 (human) (UniProt Q9P289); experiment: radiometric filter-binding kinase assay; conditions: ATP 20 µM
[21] = target: NEK6 (human) (UniProt Q9HC98); experiment: radiometric filter-binding kinase assay; conditions: ATP 50 µM
[22] = target: PHKG1 (human) (UniProt Q16816); experiment: radiometric filter-binding kinase assay; conditions: ATP 50 µM
[23] = target: PIM2 (human) (UniProt Q9P1W9); experiment: radiometric filter-binding kinase assay; conditions: ATP 5 µM
[24] = target: PRKACA (human) (UniProt P17612); experiment: radiometric filter-binding kinase assay; conditions: ATP 20 µM
[25] = test system: SGK1 (human), O00141 [S422D]; experiment: radiometric filter-binding kinase assay; conditions: ATP 20 µM
[26] = target: STK3 (human) (UniProt Q13188); experiment: radiometric filter-binding kinase assay; conditions: ATP 20 µM
[27] = target: SYK (human) (UniProt P43405); experiment: radiometric filter-binding kinase assay; conditions: ATP 20 µM
[28] = target: TBK1 (human) (UniProt Q9UHD2); experiment: radiometric filter-binding kinase assay; conditions: ATP 50 µM
Sequence of TBK1 (human) (Q9UHD2 whole entry, looked up): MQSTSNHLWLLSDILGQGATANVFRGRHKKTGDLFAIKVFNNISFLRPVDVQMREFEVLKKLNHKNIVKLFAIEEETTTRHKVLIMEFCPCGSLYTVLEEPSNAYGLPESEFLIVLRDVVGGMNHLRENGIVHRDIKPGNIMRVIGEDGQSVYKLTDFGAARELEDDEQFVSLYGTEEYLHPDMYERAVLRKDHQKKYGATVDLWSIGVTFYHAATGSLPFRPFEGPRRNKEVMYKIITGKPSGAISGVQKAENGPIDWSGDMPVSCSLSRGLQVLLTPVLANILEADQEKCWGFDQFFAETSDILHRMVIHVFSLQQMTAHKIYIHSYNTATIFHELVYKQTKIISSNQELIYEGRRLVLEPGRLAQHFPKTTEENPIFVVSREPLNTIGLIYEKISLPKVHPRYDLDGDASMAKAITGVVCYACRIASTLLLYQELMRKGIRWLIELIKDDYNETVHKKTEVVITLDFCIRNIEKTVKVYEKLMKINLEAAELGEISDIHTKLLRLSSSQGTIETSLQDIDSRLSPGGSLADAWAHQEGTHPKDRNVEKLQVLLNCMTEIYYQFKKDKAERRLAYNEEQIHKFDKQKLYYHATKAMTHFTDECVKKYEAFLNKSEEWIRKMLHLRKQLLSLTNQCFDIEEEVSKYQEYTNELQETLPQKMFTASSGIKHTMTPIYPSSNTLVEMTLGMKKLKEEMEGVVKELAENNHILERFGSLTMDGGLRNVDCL

Sequence of MAPK1 (human) (P28482 whole entry, looked up): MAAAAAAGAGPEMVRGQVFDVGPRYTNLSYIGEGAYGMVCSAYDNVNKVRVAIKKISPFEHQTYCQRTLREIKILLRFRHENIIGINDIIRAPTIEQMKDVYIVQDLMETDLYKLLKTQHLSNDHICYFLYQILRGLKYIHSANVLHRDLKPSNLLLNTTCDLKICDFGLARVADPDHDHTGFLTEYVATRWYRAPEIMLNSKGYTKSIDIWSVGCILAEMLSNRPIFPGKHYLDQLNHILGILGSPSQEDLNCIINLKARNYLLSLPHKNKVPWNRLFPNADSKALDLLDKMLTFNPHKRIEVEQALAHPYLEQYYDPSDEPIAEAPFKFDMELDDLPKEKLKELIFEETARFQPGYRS
Sequence of STK3 (human) (Q13188 whole entry, looked up): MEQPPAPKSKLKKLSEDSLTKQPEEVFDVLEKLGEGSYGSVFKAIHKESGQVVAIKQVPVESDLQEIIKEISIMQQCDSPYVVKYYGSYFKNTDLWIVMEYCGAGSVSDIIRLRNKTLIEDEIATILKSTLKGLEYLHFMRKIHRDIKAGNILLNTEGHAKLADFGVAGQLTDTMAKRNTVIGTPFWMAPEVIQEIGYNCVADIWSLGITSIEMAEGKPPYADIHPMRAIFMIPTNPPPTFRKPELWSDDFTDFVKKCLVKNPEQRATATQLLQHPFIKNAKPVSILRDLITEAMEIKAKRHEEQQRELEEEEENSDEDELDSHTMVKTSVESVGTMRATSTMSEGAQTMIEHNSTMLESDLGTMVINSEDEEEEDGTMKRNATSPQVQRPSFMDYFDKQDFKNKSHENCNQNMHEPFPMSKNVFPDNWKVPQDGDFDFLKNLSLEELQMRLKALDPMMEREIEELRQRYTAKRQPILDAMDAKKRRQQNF
Sequence of SGK1 (human), O00141 [S422D] (O00141 whole entry S422D, looked up): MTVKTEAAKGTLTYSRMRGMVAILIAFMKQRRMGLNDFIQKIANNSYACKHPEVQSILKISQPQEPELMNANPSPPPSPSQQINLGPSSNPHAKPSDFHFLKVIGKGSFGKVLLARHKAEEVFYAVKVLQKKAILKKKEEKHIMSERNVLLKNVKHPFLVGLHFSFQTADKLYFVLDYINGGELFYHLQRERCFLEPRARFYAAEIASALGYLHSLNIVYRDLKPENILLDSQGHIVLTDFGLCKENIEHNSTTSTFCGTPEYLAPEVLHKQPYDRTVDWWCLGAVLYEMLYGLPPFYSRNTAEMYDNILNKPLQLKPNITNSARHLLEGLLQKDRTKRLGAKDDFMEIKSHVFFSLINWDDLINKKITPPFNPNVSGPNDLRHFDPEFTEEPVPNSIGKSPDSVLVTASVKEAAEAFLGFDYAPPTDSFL
Sequence of CAMKK2 (human) (Q96RR4 whole entry, looked up): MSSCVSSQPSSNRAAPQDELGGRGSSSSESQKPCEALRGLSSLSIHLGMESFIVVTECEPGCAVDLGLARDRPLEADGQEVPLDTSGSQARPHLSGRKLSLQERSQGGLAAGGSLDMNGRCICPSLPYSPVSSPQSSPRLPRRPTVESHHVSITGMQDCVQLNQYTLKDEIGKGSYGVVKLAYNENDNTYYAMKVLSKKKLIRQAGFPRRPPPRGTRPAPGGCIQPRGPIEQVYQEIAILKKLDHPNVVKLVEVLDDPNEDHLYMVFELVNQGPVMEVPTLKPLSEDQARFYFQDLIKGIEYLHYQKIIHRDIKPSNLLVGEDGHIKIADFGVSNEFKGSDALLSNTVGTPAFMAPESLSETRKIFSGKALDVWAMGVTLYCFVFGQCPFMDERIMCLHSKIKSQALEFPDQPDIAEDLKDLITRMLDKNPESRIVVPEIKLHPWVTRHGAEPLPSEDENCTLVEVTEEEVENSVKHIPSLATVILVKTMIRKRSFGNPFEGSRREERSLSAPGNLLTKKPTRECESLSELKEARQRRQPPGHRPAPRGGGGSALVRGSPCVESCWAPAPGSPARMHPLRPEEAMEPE
Sequence of MST4 (human) (Q9P289 whole entry, looked up): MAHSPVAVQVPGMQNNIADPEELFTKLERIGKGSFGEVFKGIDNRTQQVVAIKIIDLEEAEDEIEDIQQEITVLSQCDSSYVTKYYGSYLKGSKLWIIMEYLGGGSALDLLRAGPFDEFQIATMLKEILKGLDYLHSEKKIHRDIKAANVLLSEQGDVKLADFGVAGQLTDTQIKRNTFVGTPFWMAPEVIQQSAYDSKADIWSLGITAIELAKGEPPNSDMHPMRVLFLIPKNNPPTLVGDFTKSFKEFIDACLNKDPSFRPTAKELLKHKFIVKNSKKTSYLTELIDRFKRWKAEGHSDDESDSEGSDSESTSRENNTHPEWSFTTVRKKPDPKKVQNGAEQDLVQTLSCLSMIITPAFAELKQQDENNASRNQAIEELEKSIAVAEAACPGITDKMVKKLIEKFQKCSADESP
Sequence of MKNK2 (human) (Q9HBH9 whole entry, looked up): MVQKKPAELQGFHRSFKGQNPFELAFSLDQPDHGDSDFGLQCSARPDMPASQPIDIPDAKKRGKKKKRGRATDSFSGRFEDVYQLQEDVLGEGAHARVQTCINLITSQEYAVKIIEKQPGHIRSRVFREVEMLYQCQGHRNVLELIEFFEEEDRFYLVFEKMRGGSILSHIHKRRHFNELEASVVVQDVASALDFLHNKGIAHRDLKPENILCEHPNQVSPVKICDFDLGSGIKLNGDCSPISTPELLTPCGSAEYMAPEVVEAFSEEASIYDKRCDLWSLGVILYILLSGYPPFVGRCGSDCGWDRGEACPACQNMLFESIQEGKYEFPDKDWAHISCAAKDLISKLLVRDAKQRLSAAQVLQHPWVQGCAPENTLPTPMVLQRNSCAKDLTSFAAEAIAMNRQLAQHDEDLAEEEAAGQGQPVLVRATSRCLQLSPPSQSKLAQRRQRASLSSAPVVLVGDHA
Sequence of MAPKAPK2 (human) (P49137 whole entry, looked up): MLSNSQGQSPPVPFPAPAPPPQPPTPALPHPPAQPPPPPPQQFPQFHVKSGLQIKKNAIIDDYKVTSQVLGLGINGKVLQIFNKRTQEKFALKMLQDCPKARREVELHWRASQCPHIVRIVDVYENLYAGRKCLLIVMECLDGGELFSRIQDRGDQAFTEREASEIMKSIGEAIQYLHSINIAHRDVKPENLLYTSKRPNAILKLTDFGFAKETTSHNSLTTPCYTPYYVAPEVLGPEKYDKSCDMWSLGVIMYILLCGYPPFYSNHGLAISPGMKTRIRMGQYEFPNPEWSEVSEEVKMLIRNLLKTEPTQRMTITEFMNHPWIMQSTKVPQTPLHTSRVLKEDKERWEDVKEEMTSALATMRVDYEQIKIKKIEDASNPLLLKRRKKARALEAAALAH
Sequence of CHEK1 (human) (O14757 whole entry, looked up): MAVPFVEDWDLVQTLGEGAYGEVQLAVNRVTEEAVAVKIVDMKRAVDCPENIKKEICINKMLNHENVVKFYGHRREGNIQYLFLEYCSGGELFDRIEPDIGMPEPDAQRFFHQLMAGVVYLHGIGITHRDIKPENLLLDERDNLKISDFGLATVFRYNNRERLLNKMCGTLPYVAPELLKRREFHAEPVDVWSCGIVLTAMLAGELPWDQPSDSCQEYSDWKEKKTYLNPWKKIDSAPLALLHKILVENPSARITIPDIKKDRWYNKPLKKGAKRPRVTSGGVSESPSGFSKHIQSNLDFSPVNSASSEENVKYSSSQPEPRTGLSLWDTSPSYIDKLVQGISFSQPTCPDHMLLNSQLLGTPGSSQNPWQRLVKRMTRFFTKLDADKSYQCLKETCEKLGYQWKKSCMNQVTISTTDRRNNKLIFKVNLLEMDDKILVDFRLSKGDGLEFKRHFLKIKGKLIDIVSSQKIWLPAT
Sequence of PIM2 (human) (Q9P1W9 whole entry, looked up): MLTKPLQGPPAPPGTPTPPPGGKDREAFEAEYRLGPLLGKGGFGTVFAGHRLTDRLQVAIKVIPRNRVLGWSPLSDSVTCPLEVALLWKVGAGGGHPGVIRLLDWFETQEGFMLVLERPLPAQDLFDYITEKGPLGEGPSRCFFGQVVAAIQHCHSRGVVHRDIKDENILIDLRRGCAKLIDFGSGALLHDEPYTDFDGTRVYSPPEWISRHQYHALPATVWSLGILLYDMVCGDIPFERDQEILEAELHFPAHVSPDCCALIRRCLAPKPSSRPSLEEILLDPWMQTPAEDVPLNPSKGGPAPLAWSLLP

CCc1cncnc1N1CCN(Cc2nc3cc(C(F)(F)F)ccc3[nH]2)CC1
residual activity ([1]; compound 1.0 µM): 98% | residual activity ([1]; compound 10.0 µM): 94% | residual activity ([2]; compound 1.0 µM): 98% | residual activity ([2]; compound 10.0 µM): 99% | residual activity ([3]; compound 1.0 µM): 107% | residual activity ([3]; compound 10.0 µM): 117% | residual activity ([4]; compound 1.0 µM): 103% | residual activity ([4]; compound 10.0 µM): 115% | residual activity ([5]; compound 1.0 µM): 101% | residual activity ([5]; compound 10.0 µM): 102% | residual activity ([6]; compound 1.0 µM): 101% | residual activity ([6]; compound 10.0 µM): 100% | residual activity ([7]; compound 1.0 µM): 99% | residual activity ([7]; compound 10.0 µM): 103% | residual activity ([8]; compound 1.0 µM): 100% | residual activity ([8]; compound 10.0 µM): 98% | residual activity ([9]; compound 0.1 µM): 89% | residual activity ([9]; compound 1.0 µM): 87% | residual activity ([9]; compound 10.0 µM): 49% | residual activity ([10]; compound 0.1 µM): 99% | residual activity ([10]; compound 1.0 µM): 98% | residual activity ([10]; compound 10.0 µM): 80% | residual activity ([11]; compound 0.1 µM): 90% | residual activity ([11]; compound 1.0 µM): 83% | residual activity ([11]; compound 10.0 µM): 83% | residual activity ([12]; compound 0.1 µM): 99% | residual activity ([12]; compound 1.0 µM): 94% | residual activity ([12]; compound 10.0 µM): 85% | residual activity ([13]; compound 0.1 µM): 97% | residual activity ([13]; compound 1.0 µM): 104% | residual activity ([13]; compound 10.0 µM): 101% | residual activity ([14]; compound 0.1 µM, ATP 20 µM): 97% | residual activity ([14]; compound 0.1 µM, ATP 100 µM): 100% | residual activity ([14]; compound 1.0 µM, ATP 20 µM): 83% | residual activity ([14]; compound 1.0 µM, ATP 100 µM): 65% | residual activity ([14]; compound 10.0 µM, ATP 20 µM): 37% | residual activity ([14]; compound 10.0 µM, ATP 100 µM): 55% | residual activity ([15]; compound 0.1 µM): 91% | residual activity ([15]; compound 1.0 µM): 92% | residual activity ([15]; compound 10.0 µM): 88% | residual activity ([16]; compound 0.1 µM, ATP 5 µM): 88% | residual activity ([16]; compound 0.1 µM, ATP 50 µM): 93% | residual activity ([16]; compound 1.0 µM, ATP 5 µM): 96% | residual activity ([16]; compound 1.0 µM, ATP 50 µM): 85% | residual activity ([16]; compound 10.0 µM, ATP 5 µM): 77% | residual activity ([16]; compound 10.0 µM, ATP 50 µM): 86% | residual activity ([17]; compound 0.1 µM): 89% | residual activity ([17]; compound 1.0 µM): 82% | residual activity ([17]; compound 10.0 µM): 91% | residual activity ([18]; compound 0.1 µM): 88% | residual activity ([18]; compound 1.0 µM): 105% | residual activity ([18]; compound 10.0 µM): 78% | residual activity ([19]; compound 0.1 µM): 92% | residual activity ([19]; compound 1.0 µM): 93% | residual activity ([19]; compound 10.0 µM): 79% | residual activity ([20]; compound 0.1 µM): 87% | residual activity ([20]; compound 1.0 µM): 77% | residual activity ([20]; compound 10.0 µM): 46% | residual activity ([21]; compound 0.1 µM): 88% | residual activity ([21]; compound 1.0 µM): 75% | residual activity ([21]; compound 10.0 µM): 80% | residual activity ([22]; compound 0.1 µM): 100% | residual activity ([22]; compound 1.0 µM): 96% | residual activity ([22]; compound 10.0 µM): 104% | residual activity ([23]; compound 0.1 µM): 90% | residual activity ([23]; compound 1.0 µM): 90% | residual activity ([23]; compound 10.0 µM): 100% | residual activity ([24]; compound 0.1 µM): 84% | residual activity ([24]; compound 1.0 µM): 83% | residual activity ([24]; compound 10.0 µM): 34% | residual activity ([25]; compound 0.1 µM): 106% | residual activity ([25]; compound 1.0 µM): 74% | residual activity ([25]; compound 10.0 µM): 65% | residual activity ([26]; compound 0.1 µM): 95% | residual activity ([26]; compound 1.0 µM): 85% | residual activity ([26]; compound 10.0 µM): 77% | residual activity ([27]; compound 0.1 µM): 121% | residual activity ([27]; compound 1.0 µM): 100% | residual activity ([27]; compound 10.0 µM): 91% | residual activity ([28]; compound 0.1 µM): 100% | residual activity ([28]; compound 1.0 µM): 89% | residual activity ([28]; compound 10.0 µM): 93%
